What was measured:
[1] = test system: ECHCG; assay: Example VI in-water applied ternary mixtures, greenhouse, transplanted paddy rice weeds; type: in vivo, Echinochloa crus-galli (L.) Beauv.; conditions: Table 68, 22.5 gai/ha, 21 DAA
Protocol: Weed seeds or nutlets of the desired test plant species were planted in puddled soil (mud) prepared by mixing a shredded, non-sterilized mineral soil (50.5 percent silt, 25.5 percent clay, and 24 percent sand, with a pH of about 7.6 and an organic matter content of about 2.9 percent) and water at a 1:1 volumetric ratio. The prepared mud was dispensed in 365 mL aliquots into 16-ounce (oz.) non-perforated plastic pots with a surface area of 86.59 square centimeters (cm^2) leaving a headspace of 3 centimeters (cm) in each pot. Mud was allowed to dry overnight prior to planting or transplanting. Rice seeds were planted in Sun Gro MetroMix® 306 planting mixture, which typically has a pH of 6.0 to 6.8 and an organic matter content of about 30 percent, in plastic plug trays. Seedlings at the second or third leaf stage of growth were transplanted into 860 mL of mud contained in 32-oz. non-perforated plastic pots with a surface area of 86.59 cm^2 4 days prior to herbicide application. The paddy was created by filling the headspace of the pots with 2.5 to 3 cm of water. When required to ensure good germination and healthy plants, a fungicide treatment and/or other chemical or physical treatment was applied. The plants were grown for 4-22 days in a greenhouse with an approximate 14 hr. photoperiod which was maintained at about 29° C. during the day and 26° C. during the night. Nutrients were added as Osmocote® (19:6:12, N:P:K+minor nutrients) at 2 g per 16-oz. pot and 4 g per 32-oz. pot. Water was added on a regular basis to maintain the paddy flood, and supplemental lighting was provided with overhead metal halide 1000-Watt lamps as necessary. The plants were employed for testing when they reached the first through fourth true leaf stage.
Treatments consisted of the benzyl ester of 4-amino-3-chloro-5-fluoro-6-(4-chloro-2-fluoro-3-methoxy-phenyl)pyridine-2-carboxylic acid (Compound A), formulated as an SC (suspension concentrate), an ACCase inhibitor herbicide, and a third herbicidal component, each applied alone and in ternary combination. Forms of compound A were applied on an acid equivalent basis.
The ACCase inhibitor component was applied on an active ingredient basis and included cyhalofop-R-butyl formulated as Clincher® G and metamifop formulated as Metamifop EC. Other herbicidal components were applied on an active ingredient or acid equivalent basis depending on the compound and included penoxsulam formulated as Grasp® SC, bentazon sodium formulated as Basagran®, triclopyr […] (TEA) salt formulated as Grandstand® R, benzobicyclon formulated as Benzobicyclon, benfuresate formulated as Full Slot® WG, pyraclonil formulated as Pyraclon® Flowable, mefenacet (technical grade material), and pretilachlor (technical grade material).
Treatment requirements for each compound or herbicidal component were calculated based upon the rates being tested, the concentration of active ingredient or acid equivalent in the formulation, an application volume of 1 mL per component per pot, and an application area of 86.59 cm^2 per pot.
For formulated compounds, a measured amount was placed in an individual 100 or 200 mL glass vial and was dissolved in a volume of 1.25% (v/v) Agri-Dex® crop oil concentrate to obtain application solutions.
For technical grade compounds, a weighed amount was placed in an individual 100 to 200 mL glass vial and was dissolved in a volume of acetone to obtain concentrated stock solutions.
Applications were made by injecting with a pipetter appropriate amounts of the application solutions, into the aqueous layer of the paddy. Control plants were treated in the same manner with the solvent blank. Applications were made so that all treated plant material received the same concentrations of acetone and crop oil concentrate.
The treated plants and control plants were placed in a greenhouse as described above and water was added as needed to maintain a paddy flood. […]

[2] = test system: SCPMA; assay: as above; type: in vivo; conditions: Table 68, pyraclonil 22.5 gai/ha
[3] = test system: CYPES; assay: Example I postemergence foliar-applied, greenhouse, direct seeded rice weeds; type: in vivo, Cyperus esculentus L.
Excerpt: (§1) Seeds or nutlets of the desired test plant species were planted in a soil matrix prepared by mixing a loam or sandy loam soil (e.g., 28.6 percent silt, 18.8 percent clay, and 52.6 percent sand, with a pH of about 5.8 and an organic matter content of about 1.8 percent) and calcareous grit in an 80 to 20 ratio. The soil matrix was contained in plastic pots with a volume of 1 quart and a surface area of 83.6 square centimeters (cm^2). When required to ensure good germination and healthy plants, a fungicide treatment and/or other chemical or physical treatment was applied. The plants were grown for 8-22 days in a greenhouse with an approximate 14 hr. photoperiod which was maintained at about 29° C. during the day and 26° C. during the night. Nutrients (Peters Excel® 15-5-15 5-Ca 2-Mg and iron chelate) were applied in the irrigation solution as needed and water was added on a regular basis. Supplemental lighting was provided with overhead metal halide 1000-Watt lamps as necessary. The plants were employed for testing when they reached the first through fourth true leaf stage.
(§2) Treatments consisted of the acid or esters of 4-amino-3-chloro-5-fluoro-6-(4-chloro-2-fluoro-3-methoxy-phenyl)pyridine-2-carboxylic acid (Compound A), each formulated as an SC (suspension concentrate), and various herbicidal components alone and in combination.
(§3) Other herbicidal components were applied on an acid equivalent (ae) or active ingredient (ai) basis and included acetyl coA carboxylase (ACCase)-inhibiting herbicides (cyclohexanedione and aryloxyphenoxypropionate chemical classes) cyhalofop-butyl formulated as Clincher® SF (285 gr ai/L EC), diclofop-methyl formulated as Hoelon® 3EC, fenoxaprop-p-ethyl+isoxadifen-ethyl formulated as RiceStar® HT (0.58 lb./gal EC), fenoxaprop-p-ethyl+mefenpyr diethyl formulated as Puma® IEC, metamifop formulated as Metamifop EC, haloxyfop-methyl formulated as Gallant Super®, fluazifop-p-butyl formulated as Fusilade® DX, quizalofop-p-ethyl formulated as Assure® II, profoxydim formulated as Aura® 20EC, clethodim applied as Intensity®, sethoxydim formulated as Poast®, and tralkoxydim formulated as Achieve®.
(§4) Treatment requirements were calculated based upon the rates being tested, the concentration of active ingredient or acid equivalent in the formulation, and a 12 mL application volume at a rate of 187 L/ha.
(§5) For treatments comprised of formulated compounds, measured amounts of compounds were placed individually in 25 mL glass vials and diluted in a volume of 1.25% (v/v) Agri-Dex® crop oil concentrated to obtain 12× stock solutions. […] Application solutions were prepared by adding an appropriate amount of each stock solution (e.g., 1 mL) and diluted to the appropriate final concentrations with the addition of 10 mL of an aqueous mixture of 1.25% (v/v) crop oil concentrate so that the final spray solutions contained 1.25+/−0.05% (v/v) crop oil concentrate.
(§6) All stock solutions and applications solutions were visually inspected for compound compatibility prior to application. Spray solutions were applied to the plant material with an overhead Mandel track sprayer equipped with a 8002E nozzles calibrated to deliver 187 L/ha over an application area of 0.503 m^2 at a spray height of 18 to 20 inches (46 to 50 cm) above average plant canopy height. Control plants were sprayed in the same manner with the solvent blank.
(§7) The treated plants and control plants were placed in a greenhouse as described above and watered by sub-irrigation to prevent wash-off of the test compounds. After approximately 3 weeks, the condition of the test plants as compared with that of the untreated plants was determined visually and scored on a scale of 0 to 100 percent where 0 corresponds to no injury or growth inhibition and 100 corresponds to complete kill. […]

[4] = test system: DIGSA; assay: as above; type: in vivo, Digitaria sanguinalis (L.) Scop.; conditions: 70 gai/ha
Excerpt: as §1
Treatments consisted of the acid or esters of 4-amino-3-chloro-5-fluoro-6-(4-chloro-2-fluoro-3-methoxy-phenyl)pyridine-2-carboxylic acid (Compound A), each formulated as an SC (suspension concentrate), and various herbicidal components alone and in combination. […]
as §4
For treatments comprised of formulated compounds, measured amounts of compounds were placed individually in 25 mL glass vials and diluted in a volume of 1.25% (v/v) Agri-Dex® crop oil concentrated to obtain 12× stock solutions. […]
as §7

[5] = test system: SCPJU; assay: as above; type: in vivo, Schoenoplectus juncoides (Roxb.) Palla
Excerpt: as §1, §2, §3, §4, §5, §6, §7

[6] = test system: BRAPP; assay: as above; type: in vivo, Brachiaria platyphylla (Griseb.) Nash; conditions: 70 gai/ha
Excerpt: as §1, §2, §3, §4, §5, §6, §7

| SMILES | Visual Weed Control (%) - 21 DAA ECHCG Obs [1] | Visual Weed Control (%) - 21 DAA SCPMA Obs [2] | Visual Weed Control (%) - 20 DAA CYPES Obs ([3]; 70 gai/ha) | Visual Weed Control (%) - 20 DAA CYPES Obs ([3]; 140 gai/ha) | Visual Weed Control (%) - 20 DAA CYPES Obs ([3]; 280 gai/ha) | Visual Weed Control (%) - 20 DAA DIGSA Obs [4] | Visual Weed Control (%) - 20 DAA SCPJU Obs ([5]; 140 gai/ha) | Visual Weed Control (%) - 20 DAA SCPJU Obs ([5]; 280 gai/ha) | Visual Weed Control (%) - 20 DAA BRAPP Obs [6] |
| --- | --- | --- | --- | --- | --- | --- | --- | --- | --- |
| C#CCN(C)c1c(C#N)cnn1-c1nn2c(c1Cl)CCCC2 [Pyraclonil] | 30% | 78% |  |  |  |  |  |  |  |
| CCSC(C)CC1CC(=O)C(/C(CC)=N/OC/C=C/Cl)=C(O)C1 (stereo not drawn) [Clethodim, 2-[1-[[[(2E)-3-chloro-2-propen-1-yl]oxy]imino]propyl]-5-[2-(ethylthio)propyl]-3-hydroxy-2-cyclohexen-1-one, reference compound] |  |  | 0% | 0% | 0% | 50% | 0% | 0% | 10% |
